Holding throughout (settings): pH 7.2; 20 µM decylubiquinone, 100 µM DCPIP, 0.33% succinate, 1 µM antimycin, 4% DMSO
In experiment [1] the target is T1, C. elegans SDH (mitochondrial complex II) (Caenorhabditis elegans, UniProt O62215+P41956+Q09545).
T1 construct: gene sdhb-1; native complex II in mitochondrial preparation; wild-type strain N2 named for cultures, not explicitly for the mitochondria; with Succinate dehydrogenase [ubiquinone] flavoprotein subunit, mitochondrial
Put plainly: succinate:ubiquinone reductase assay, DCPIP reduction at […] nm, mitochondrial protein. It is filed as biochemical.

Experiment [2] has as its target T2, SDH (mitochondrial complex II) of earthworm.
T2 construct: gene SDHB; native complex II in mitochondrial preparation from earthworm; with Succinate dehydrogenase [ubiquinone] flavoprotein subunit, mitochondrial
Described as above. In kind it is biochemical, Eisenia andrei.

For experiment [3], the target named is T3, SDH (mitochondrial complex II) of rat (Rattus norvegicus, UniProt P21913+Q641Z9+Q6PCT8).
T3 construct: gene Sdhb
T3 sequence (P21913 31-282): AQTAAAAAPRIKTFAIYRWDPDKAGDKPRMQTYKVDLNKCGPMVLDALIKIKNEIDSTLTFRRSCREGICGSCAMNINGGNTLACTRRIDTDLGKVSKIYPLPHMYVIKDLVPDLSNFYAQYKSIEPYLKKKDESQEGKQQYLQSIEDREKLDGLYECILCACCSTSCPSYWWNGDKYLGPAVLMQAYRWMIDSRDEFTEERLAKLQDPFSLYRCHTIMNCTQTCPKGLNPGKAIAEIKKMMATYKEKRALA
T3 sequence (Q641Z9 30-169): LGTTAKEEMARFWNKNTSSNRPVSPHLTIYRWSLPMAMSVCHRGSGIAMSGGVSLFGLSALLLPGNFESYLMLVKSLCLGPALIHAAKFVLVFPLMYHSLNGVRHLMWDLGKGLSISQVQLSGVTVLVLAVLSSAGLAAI
T3 sequence (Q6PCT8 57-159): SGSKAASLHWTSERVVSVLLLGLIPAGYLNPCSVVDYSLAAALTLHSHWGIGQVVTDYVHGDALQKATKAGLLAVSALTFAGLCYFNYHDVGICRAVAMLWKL
T3 sequence (Q920L2 35-656 partner): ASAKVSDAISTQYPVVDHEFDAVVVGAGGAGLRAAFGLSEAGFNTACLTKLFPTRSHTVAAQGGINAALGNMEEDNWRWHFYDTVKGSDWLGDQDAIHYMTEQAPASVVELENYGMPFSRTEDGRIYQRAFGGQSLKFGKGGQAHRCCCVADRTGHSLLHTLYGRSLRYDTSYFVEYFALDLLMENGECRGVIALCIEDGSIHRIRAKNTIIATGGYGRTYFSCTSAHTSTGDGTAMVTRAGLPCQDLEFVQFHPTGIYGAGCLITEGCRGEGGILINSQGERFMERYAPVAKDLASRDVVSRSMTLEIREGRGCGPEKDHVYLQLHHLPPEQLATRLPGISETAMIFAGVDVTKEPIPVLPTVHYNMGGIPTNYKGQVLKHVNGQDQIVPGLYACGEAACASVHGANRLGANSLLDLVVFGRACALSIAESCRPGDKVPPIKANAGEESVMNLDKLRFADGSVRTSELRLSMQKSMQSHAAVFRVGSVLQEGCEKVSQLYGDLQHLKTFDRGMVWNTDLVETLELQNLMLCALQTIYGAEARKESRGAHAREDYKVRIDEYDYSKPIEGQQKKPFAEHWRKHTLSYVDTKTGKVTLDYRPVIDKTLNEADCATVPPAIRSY

T1 sequence (Q09545 36-298): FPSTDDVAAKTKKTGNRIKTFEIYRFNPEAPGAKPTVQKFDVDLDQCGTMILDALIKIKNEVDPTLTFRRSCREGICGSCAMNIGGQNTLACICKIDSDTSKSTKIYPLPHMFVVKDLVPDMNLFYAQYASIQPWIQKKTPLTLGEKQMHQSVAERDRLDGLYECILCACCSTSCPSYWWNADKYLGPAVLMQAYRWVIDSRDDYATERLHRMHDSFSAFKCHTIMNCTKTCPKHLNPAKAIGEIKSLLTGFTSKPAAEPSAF
T1 sequence (P41956 31-182): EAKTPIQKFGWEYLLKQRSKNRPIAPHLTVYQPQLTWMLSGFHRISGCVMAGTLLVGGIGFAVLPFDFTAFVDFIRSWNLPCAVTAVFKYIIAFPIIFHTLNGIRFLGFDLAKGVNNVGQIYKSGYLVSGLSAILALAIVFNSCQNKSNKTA
T1 sequence (O62215 32-145): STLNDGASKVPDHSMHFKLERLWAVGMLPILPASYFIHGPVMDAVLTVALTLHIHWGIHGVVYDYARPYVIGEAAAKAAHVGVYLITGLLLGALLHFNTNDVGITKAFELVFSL
T1 sequence (Q09508 32-646 partner): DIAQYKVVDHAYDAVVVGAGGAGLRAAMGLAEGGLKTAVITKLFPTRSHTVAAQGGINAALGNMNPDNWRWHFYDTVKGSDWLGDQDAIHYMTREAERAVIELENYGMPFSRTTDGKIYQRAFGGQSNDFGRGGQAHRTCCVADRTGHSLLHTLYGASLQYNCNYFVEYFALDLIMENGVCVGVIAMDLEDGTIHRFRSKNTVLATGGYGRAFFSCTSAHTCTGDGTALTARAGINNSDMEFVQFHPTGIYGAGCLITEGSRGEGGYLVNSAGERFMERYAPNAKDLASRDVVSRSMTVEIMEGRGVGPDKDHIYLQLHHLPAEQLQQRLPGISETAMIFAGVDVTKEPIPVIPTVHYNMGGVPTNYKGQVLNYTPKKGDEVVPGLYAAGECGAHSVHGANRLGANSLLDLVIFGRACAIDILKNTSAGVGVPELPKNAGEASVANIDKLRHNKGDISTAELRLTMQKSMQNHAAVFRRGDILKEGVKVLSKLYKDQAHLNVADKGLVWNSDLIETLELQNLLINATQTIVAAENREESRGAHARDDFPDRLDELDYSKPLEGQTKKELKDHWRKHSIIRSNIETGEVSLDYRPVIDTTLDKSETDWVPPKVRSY

`O=C(NCCc1ncc(C(F)(F)F)cc1Cl)c1ccccc1C(F)(F)F` [fluopyram]: the pIC50 (in general, the negative decadic logarithm of the IC50, by convention in mol/L) in experiment [1] turned out to be 8.5.

Take `CC(C)Oc1cccc(NC(=O)c2ccccc2C(F)(F)F)c1` [flutolanil]: the pIC50 in experiment [2] was 6.0; in experiment [1], 6.5.

On to `COc1[nH]c(=O)c(C(=O)[C@@H](C)C[C@H](C)[C@@H](Cl)CCl)c(O)c1OC` [Atpenin A5], for which the figures for the pIC50 in experiment [2], in experiment [1] and in experiment [3] were 8.1, 7.7 and 8.2, respectively.

(Values after paper PMC9279378, “Mode of action of fluopyram in plant-parasitic nematodes” (Scientific Reports, 2022).)
